Measured values from patent US20030118525A1, “Treatment of uv induced immunosuppression” (priority 2000, published 2003).

Tests used:
[1] = test system: collagen in human fibroblasts; assay: Collagen cross-linking by UV (solar) irradiation in human fibroblasts in vitro; type: cell-based; conditions: 1-2 μM
Source text: (§1) 1.4 Collagen cross-linking by UV (solar) irradiation was achieved as described in WO 90/06102.

[2] = test system: collagen in mouse fibroblasts; assay: Collagen cross-linking by UV (solar) irradiation in mouse fibroblasts in vitro; type: cell-based; conditions: 1-2 μM
Source text: as §1

[3] = test system: mice irradiated with simulated solar UV radiation (SSUV); assay: Erythema/oedema as mid-dorsal skinfold thickness after simulated solar UV radiation; type: in vivo
Experimental: (§2) 1.1 Solar simulated radiation (SSUV) was produced from a filtered fluorescent tube source, and was administered at the rate of 1 MED daily for 3Days.
1.2 Erythema was measured as a mid-dorsal skinfold thickness, which comprises mostly the oedema component of erythema.
(§3) Carnosine incorporated into cosmetic creams at 0.1% and 1.00%, was compared with a cream containing 0.1% acetylcarnosine and a control cream containing neither carnosine nor acylcarnosine. The creams were applied daily (100 μl per mouse) immediately following irradiation with 1 MED of simulated solar UV radiation on 3 consecutive days only.
The sunburn (erythema) response was measured in mice by the oedema component at the peak of the erythema (48 h after the first UV exposure).

[4] = test system: mice irradiated with simulated solar UV radiation (SSUV); assay: Contact hypersensitivity to oxazolone after SSUV irradiation (ear swelling); type: in vivo; conditions: 0.1% cream; in words
Experimental: as §2
1.3 Contact hypersensitivity was induced by application of 100 μl 0.2% w/v oxazolone in ethanol, to the abdominal skin of groups of 6 mice. The mice were challenged by application of 5 μl of fresh oxazolone/ethanol to each surface of both pinnae one week later, and the ear swelling response was measured 24 h later.
as §3

collagen in mouse skin = assay: Collagen cross-linking by UV (solar) irradiation in mouse skin; conditions: 1-2 μM
Source text: as §1

With `CC(=O)NCCC(=O)N[C@@H](Cc1cnc[nH]1)C(=O)O` [acetylcarnosine, N-acetylcarnosine] the “inhibition of cross linking of collagen by UV (solar) irradiation” value (shortened to “inhibition of cross linking of collagen”) [1] was “completely inhibited”, the “inhibition of cross linking of collagen” value [2] was “completely inhibited” and the “% increase in skinfold thickness” value ([3]; 0.1% cream, 100 μl per mouse daily immediately after 1 MED SSUV on 3 days, measured at 48 h, base + SSUV 30.2) was 11.3%. The “sunburn (erythema) response, oedema component at peak of erythema” value ([3]; creams applied after SSUV, 48 h after the first UV exposure, in words) was “significant reduction”, the “protection against suppression of contact hypersensitivity resulting from UV irradiation” value [4] was “totally prevented” and the “inhibition of cross linking of collagen” value (collagen in mouse skin) was “completely inhibited”.
